Measured values as given in EP1043318A1 (priority 1997, dated 1999).

What was measured:
[1] = tested on: primary culture of humans lymphocytes; test: Interferon-inducing activity in primary lymphocyte culture (immunoenzyme determination of INF); format: cell-based, human
[2] = tested on: herpes simplex type 1 (VPG-1/Leningrad/248/88); test: Antiviral activity on herpes virus, cytopathic effect in Vero cell culture; format: cell-based, herpes simplex virus; conditions: unchanged Vero cells after 36 hours
[3] = tested on: M. tuberculosis 61 (S); test: Activity on pathogenic mycobacteria, growth on Lewenstein-Jensen medium (sensitive strain); format: cell-based; conditions: strain sensitive to control preparations; concentration of the preparation 50.0 g/l (table title); incubated 30 days
[4] = tested on: C. trachomatis D323; test: Activity on Chlamydia trachomatis in infected cell culture; format: cell-based; conditions: for No. of unchanged cells: 100 viewing fields, cell control 9.000, infected cells 6.000
[5] = Acute toxicity in mice; design: species or system non-linebred white mice; conditions: mouse, in vivo, iv, by mouth or intravenously, 14 days observation
Description: Acute toxicity was determined on non-linebred white mice weighing 18-20 g. The claimed compounds were prepared in a range of concentrations: 1500, 700, 500, 100, 20 and 5 µg/kg. Five animals were used to study each specific concentration of a compound. The preparation was administered once a day by mouth of intravenously. The observation period was 14 days On days 1, 8 and 15 the animals in every group were weighed. For a control we used animals who received the emulsion without the test compounds. All animals, both those that died in the course of the experiment and those that survived to the end of the experiment, were opened to allow macroscopic examination of internal organs. In the course of the experiment no loss of weight was observed or any change in behavior or external appearance, nor was there any loss of life. Based on the results of the macroscopic examination of internal organs of the animals in the test and the control groups, no pathological findings were made, [text missing]

| Compound | Concentration of INF in induction mixture after 24 hrs. of incubation ([1]; 1 mg/l of the preparation) | Concentration of INF in induction mixture after 24 hrs. of incubation ([1]; 10 mg/l of the preparation) | Concentration of INF in induction mixture after 24 hrs. of incubation ([1]; 100 mg/l of the preparation) | number of cells in 100 fields ([2]; 10 mg/l) | number of cells in 100 fields ([2]; 50 mg/l) | number of cells in 100 fields ([2]; 100 mg/l) | M. tuberculosis 61S growth [3] | also measured |
| --- | --- | --- | --- | --- | --- | --- | --- | --- |
| pyridine salt of 5,5'-(p-bromobenzylidene)bisbarbituric acid [VIII] | 0,9 ± 0,2 IU/3·10^4 lymph/ml | 1,2 ± 0,4 IU/3·10^4 lymph/ml | 3,8 ± 0,4 IU/3·10^4 lymph/ml | 10000 | 2500 | 5000 |  |  |
| CC[C@@H](CO)NCCN[C@@H](CC)CO [Ethambutol] |  |  |  |  |  |  | complete suppression of growth |  |
| 2-hydroxyethylammonium salt of 5,5'-(p-nitrobenzylidene)bisbarbituric acid [III] |  |  |  | 2000 | 3000 | 5500 |  | percent protection of the cells against infection ([4]; 10 mg/l): 60%; No. of unchanged cells ([4]; 10 mg/l): 7800; percent protection of the cells against infection ([4]; 100 mg/l): 65%; No. of unchanged cells ([4]; 100 mg/l): 7950 |
| O=C1NC(=S)NC(=O)C1C(c1ccc([N+](=O)[O-])cc1)C1C(=O)NC(=S)NC1=O [X, 5,5'-(p-nitrobenzylidene)bis (2-thiobarbituric) acid] | 4.0 ± 0.5 IU/3·10^4 lymph/ml | 23 ± 1.0 IU/3·10^4 lymph/ml | 47 ± 0.8 IU/3·10^4 lymph/ml | 10000 | 10000 | 3000 | complete suppression of growth | LD50 at 336 h [5]: 1000 mg/kg |
| O=C1NC(=S)NC(=O)C1C(c1ccc(Cl)cc1)C1C(=O)NC(=S)NC1=O [IX] | 5,6 ± 0,8 IU/3·10^4 lymph/ml | 21,0 ± 0,9 IU/3·10^4 lymph/ml | 35,2 ± 1,6 IU/3·10^4 lymph/ml | 10000 | 10000 | 3000 |  |  |
| [H]/N=C(/N)N[C@H]1[C@H](O)[C@@H](O)[C@H](O[C@@H]2O[C@@H](C)[C@](O)(C=O)[C@H]2O[C@@H]2O[C@@H](CO)[C@H](O)[C@@H](O)[C@@H]2NC)[C@@H](N/C(N)=N\[H])[C@@H]1O [Streptomycin] |  |  |  |  |  |  | complete suppression of growth |  |
| pyridine salt of 5,5'-(p-chlorobenzylidene)bis(2-thiobarbituric) acid [IV] | 1,3 ± 0,5 IU/3·10^4 lymph/ml | 3,7 ± 1,0 IU/3·10^4 lymph/ml | 23,0 ± 1,7 IU/3·10^4 lymph/ml | 10000 | 2000 | 4000 |  |  |
| Nc1nc2c(ncn2COCCO)c(=O)[nH]1 [Acyclovir, reference compound] |  |  |  | 8000 |  |  |  |  |
| NNC(=O)c1ccncc1 [Isoniazid] |  |  |  |  |  |  | complete suppression of growth |  |
